Measurements published in paper PMC3711284, “Anti-antimicrobial Peptides” (The Journal of Biological Chemistry, 2013).
Read-outs that look alike come from different tables or passages of the source. Where no end group is shown, it is not given here.

Tests used:
human erythrocytes = test: Hemolysis assay; format: cell-based
Protocol: Hemolysis was determined by incubating 10% (v/v) suspension of human erythrocytes with peptides. Erythrocytes were rinsed four times in 10 mM PBS, pH 7.2, by repeated centrifugation and resuspension (3 min at 3000 × g). Erythrocytes were incubated at room temperature for 1 h in either deionized water (fully hemolysed control), PBS, or with peptide in PBS. After centrifugation at 10,000 × g for 5 min, the supernatant was separated from the pellet and the absorbance measured at 550 nm. Absorbance of the suspension treated with deionized water defined complete hemolysis. The values below correspond to the percentage of hemolysis at tested concentrations. All tests were done in triplicate.

S. aureus (ATCC6538) = format: cell-based, Staphylococcus aureus
E. coli = test: Gram stain assay after overnight incubation with peptide; format: cell-based, Escherichia coli; settings: incubated with peptide for 16 h, optical microscopy; anti-cBt:cBt 10:1 (100:10 μM)
Protocol: (§1) 20 μl of a bacterium culture was dispensed onto a glass slide and spread well. The slide was swiftly passed through a Bunsen flame to dry and fix cells before staining. The fixed bacteria were first covered in crystal violet (0.25%) for 30 s followed by washing with water (distilled, filtered 0.22 μm) until all of the excess stain was washed off, and then with iodine (1.0%) for 2 min before washing with a minimum amount of acetone needed to rinse off the iodine color. The cells were counterstained with safranin (0.5%) for 30 s, washed with water, and dried by a Bunsen flame. The obtained slides were viewed under a Leica DMLB fluorescent microscope. The images were obtained at ×100 magnification under oil and analyzed by ImageJ.

P. aeruginosa = test: as above; format: cell-based, Pseudomonas aeruginosa; settings: incubated with peptide for 16 h, optical microscopy; anti-cBt:cBt 10:1 (100:10 μM)
Protocol: as §1

S. aureus (ATCC 25723) = format: cell-based
Protocol: S. aureus (ATCC 25723) culture (1 ml) was centrifuged to give a cell pellet, which was washed twice with 10 mM phosphate buffer, pH 7.4, before being reconstituted in phosphate buffer to give A600 nm = 0.008. 1 ml of the solution was dispensed in a 2-well glass chamber (LabTek) with diluted (1/500) propidium iodide (1 mg/ml, from Invitrogen). The chambers with surface-settled bacteria (60 min) were mounted on a confocal microscope (Olympus) equipped with an incubation chamber at 37 °C. Propidium iodide fluorescence emission was monitored at 625 nm for 60 min (three frames/min) using an appropriate filter after the addition of peptide (1 ml). Recorded images (XYZ) were analyzed using Fiji software to plot the number of fluorescent (stain-dead) cells as a function of time.

cBt = test: Isothermal titration calorimetry of anti-cBt into cBt; format: binding; settings: ITC, 20 °C
Protocol: Measurements were obtained using a Microcal VP-isothermal titration calorimeter and a calorimetric cell (initial volume 1.46 ml) with a 260-s equilibration time and a 120-s initial delay after each addition. The titrations were performed at 20 °C with stirring until no further enthalpy changes were observed. Binding isotherms were recorded for cBt (30 μM) following the injection of anti-cBt (2 μl aliquots, 1.4 mM) into the cell. The observed heats were corrected for dilution effects by titrating peptide solutions, as appropriate, into the buffer and using the heat of last injections due to negligible differences between the first and last injections. All the data were corrected for the volume of the added titrant and analyzed by proprietary software (Microcal Origin 7) using a one-site binding model to allow for the determination of association constants (Ka), changes in enthalpy (ΔH) and enthropy (ΔS). Each experiment was performed in triplicate.

[1] = system: Bacillus subtilis ATCC 6633; format: cell-based
Protocol: (§2) MICs were determined by broth microdilution on Pseudomonas aeruginosa ATCC 27853, Escherichia coli K12, Staphylococcus aureus ATCC 25723, Micrococcus luteus NCIMB 13267, and Bacillus subtilis ATCC 6633 according to the Clinical and Laboratory Standards Institute. Typically, 100 μl of 0.5–1 × 10^6 cfu/ml of each bacterium in Mueller-Hinton medium broth (Oxoid) was incubated in 96-well microtiter plates with 100 μl of serial 2-fold dilutions of the peptides (from 100 to 0 μM) at 37 °C on a three-dimensional orbital shaker. The absorbance was measured after peptide addition at 600 nm using a Victor 2 plate reader (PerkinElmer Life Sciences). MICs were defined as the lowest peptide concentration after 24 h at 37 °C. All tests were done in triplicate.

[2] = system: Pseudomonas aeruginosa ATCC 27853; format: cell-based
Protocol: as §2

[3] = system: Micrococcus luteus NCIMB 13267; format: cell-based
Protocol: as §2

Escherichia coli K12 = format: cell-based
Protocol: as §2

[4] = human erythrocytes 10% (v/v) in PBS pH 7.2, 1 h, room temperature, A550, 50% cell death compared with untreated cells, triplicate
[5] = broth microdilution, Mueller-Hinton broth, 24 h, 37 °C, A600, triplicate

| Substance | HE (LC50) (human erythrocytes; [4]) | Minimum inhibitory concentration (MIC) S. aureus (ATCC6538) (S. aureus (ATCC6538); [5]) [µM] | effect on E. coli cell growth, Gram stain (E. coli) | effect on P. aeruginosa cell growth, Gram stain (P. aeruginosa) | effect on killing of S. aureus at concentrations >100 μM (S. aureus (ATCC 25723); stain-dead S. aureus, propidium iodide, 37 °C) | killing rate at higher concentrations (>250 μM) (S. aureus (ATCC 25723); stain-dead S. aureus, cBt at MIC after 1 h = 100%) [%] | association (binding) constant (Ka) (cBt; anti-cBt (1.4 mM) injected into cBt (30 μM), one-site binding model, triplicate) | ΔG of binding (cBt; anti-cBt into cBt (30 μM)) [kcal/mol] | binding enthalpy (ΔH) (cBt; anti-cBt into cBt (30 μM), endothermic) [kcal/mol] | Minimum inhibitory concentration (MIC) B. subtilis (ATCC6633) [1, 5] [µM] | Minimum inhibitory concentration (MIC) P. aeruginosa (ATCC27853) [2, 5] [µM] | Minimum inhibitory concentration (MIC) M. luteus (NCIMB 13267) [3, 5] [µM] | Minimum inhibitory concentration (MIC) E. coli (K12) (Escherichia coli K12; [5]) [µM] | HE (LC50) (human erythrocytes; pH 7.2) | Minimum inhibitory concentration (MIC) S. aureus (ATCC6538) (S. aureus (ATCC6538); ATCC6538, 24 h) [µM] | Minimum inhibitory concentration (MIC) B. subtilis (ATCC6633) ([1]; ATCC 6633, 24 h) [µM] | Minimum inhibitory concentration (MIC) P. aeruginosa (ATCC27853) ([2]; ATCC 27853, 24 h) [µM] | Minimum inhibitory concentration (MIC) M. luteus (NCIMB 13267) ([3]; NCIMB 13267, 24 h) [µM] | Minimum inhibitory concentration (MIC) E. coli (K12) (Escherichia coli K12; K12, 24 h) [µM] | killing rate in the first 30 min (S. aureus (ATCC 25723); ATCC 25723, 1 h, 100 μM, pH 7.4) [%] |
| --- | --- | --- | --- | --- | --- | --- | --- | --- | --- | --- | --- | --- | --- | --- | --- | --- | --- | --- | --- | --- |
| EAQNLEKEIAALEQAIQGLEKEIPALAQQIQALEL-NH2 [Anti-cBt] | ≫250 μM | >200 | No obvious effects | No obvious effects | No effects | 10 | 2.8 ± 0.2 × 10^6 M^−1 | -7.8 | 9.7 | >200 | >200 | >200 | >200 |  |  |  |  |  |  |  |
| GEFAQFEQEAQSLEQELSQLEQQLESL-NH2 [Anti-b27] |  |  |  |  |  |  |  |  |  |  |  |  |  | ≫250 μM | >200 | >200 | >200 | >200 | >200 |  |
| GRFKRFRKKFKKLFKKLSPVIPLLHLG-NH2 [b27, bovine myeloid antimicrobial peptide-27, reference compound] |  |  |  |  |  |  |  |  |  |  |  |  |  | ≫250 μM | >100 | 0.78 ± 0.01 | 4.51 ± 1.56 | 0.74 ± 0.33 | 3.13 ± 0.43 |  |
| KWKVFKKIEKMGRNIRNGIVKAGPAIAVLGEAKAL-NH2 (C-terminus assumed) [cB, cecropin B, reference compound] | ≫250 μM |  |  |  |  |  |  |  |  |  |  |  |  |  | >100 | 50.7 ± 0.10 | 1.56 ± 0.01 | 0.46 ± 0.20 | 0.62 ± 0.01 | ~60 |
